Row | SMILES | melting point [°C]
1 | CCCCCCCCCCC(=O)C(=O)CCCCCCCCCC | 68.5 to 69
2 | CCCCCCCCCC(N)CCCCCCCCC(N)CCCCCCCCC (stereo not drawn) | 33 to 37
3 | CCNC(=O)Nc1cc(C(C)(C)C)c2c(c1)C(C)(C)CO2 | 197 to 198
4 | CS(=O)(=O)c1cc(C(=O)N=C(N)N)ccc1Oc1ccc(=O)[nH]n1 | 268 to 270
5 | COC(=O)C1(S(=O)(=O)N2CC=C(c3ccc(Br)c(C)c3)CC2)CCOCC1 | 128 to 130
6 | Cc1nc(N)nc(N)c1C12CC3CC(CC(C3)C1)C2 | 254 to 258
7 | CC(=O)OC1CSC(Oc2ccc(S(C)(=O)=O)cc2)C(OC(C)=O)C1OC(C)=O (stereo not drawn) | 168
8 | Cc1ccc(Cc2cnc(NCCCNc3ccc(C#N)cn3)[nH]c2=O)cn1 | 175 to 177
9 | Cn1ccc2c1CCN1C(=O)CCC21 (stereo not drawn) | 122 to 125
10 | CN1C(=O)COc2ccc(C3=NNC(=O)CC3)cc21 | 247 to 248
11 | Cc1nc(C)n(-c2cc(C)c3[nH]c(=O)ccc3c2)c1C#N | 334 to 337
12 | CCc1c(N)c(C(N)=O)nn1C1CN(C(C)C)C1 | 195 to 200
13 | CNC(=O)c1ccc(F)c2c1CC(N(CCc1c[nH]c3ccc(F)cc13)CC1CC1)CO2 (stereo not drawn) | 138
14 | O=C(NC1CC1)c1ccc(F)c2c1CC(N(CCCc1c[nH]c3ccc(F)cc13)C1CCC1)CO2 (stereo not drawn) | 134
15 | CCOC(=O)Cc1c(C)[nH]c2cc(F)c(OC)c(F)c12 | 92.1 to 92.7
16 | CCCCCc1cc(O)c2c3c(c(=O)oc2c1)SC(C)C3 (stereo not drawn) | 188 to 190
17 | Cc1cccc(N=c2scc(-c3ccc(Cl)c(S(=O)(=O)N(C)C)c3)n2C)c1C | 226

Row | SMILES | melting point [°C]
18 | CCCOC(=O)Nc1nc(=O)n(C2OC(C)C(O)C2O)cc1F (stereo not drawn) | 125 to 126
19 | Cc1oc(=O)oc1Cn1nnc(-c2ccnc(-c3nnn(Cc4oc(=O)oc4C)n3)c2)n1 | 150 to 152
20 | CC(C)(C)[Si](C)(C)O[C@@H]1[C@H](O)C[C@]2(O[Si](C)(C)C(C)(C)C)C[C@H]1OC2=O | 107 to 108
21 | CSc1ncnc2c(C3OC(CO)C(O)C3O)csc12 (stereo not drawn) | 226 to 228
22 | CCOC(=O)CCCC1CCN(CCOC(c2ccccc2)c2ccc(F)cc2)CC1 (stereo not drawn) | 119 to 120
23 | CC(C)(C)C1CCc2nc(N)nc(N)c2C1 (stereo not drawn) | > 250
24 | CC[C@H](C(N)=O)N1CCCC1=O | 115 to 117
25 | CCCCCn1c(C)c(C(=O)c2ccc(Cl)c3ccccc23)c2cccc(OC)c21 | 112
26 | COC(=O)c1nc(-c2ccc(Cl)c(OC)c2F)c(F)c(N)c1SC | 113 to 117
27 | CCS(=O)(=O)N[C@H]1CC[C@H](CCN2CCN(c3nccc4c3OCC4)CC2)CC1 | 190
28 | CCOc1cc(-c2cc(C(F)(F)F)n3ncc(C(=O)Nc4nc(C)c(S(N)(=O)=O)s4)c3n2)ccc1C(F)(F)F | 300
29 | CNC(=O)N1N=C(c2ccc(N)cc2)c2cc(Br)ccc2CC1C (stereo not drawn) | 121 to 124
30 | CCn1cc(C(=O)O)c(=O)c2cc(F)c(N3CCN(O)CC3)c(F)c21 | 253 to 260
31 | COC(=O)c1ccc(Cl)cc1N(C)S(C)(=O)=O | 73 to 75
32 | COCC(=O)Nc1cccc2c1C(=O)N(C1(C)CCC(=O)NC1=O)C2=O (stereo not drawn) | 244 to 246
33 | NC(=O)c1cnn(-c2ccc(Cl)nn2)c1N | 314 to 317

Other lines, results leading:

Row | melting point [°C] | SMILES
34 | 80.9 | O=S(=O)(Cl)c1ccc(Oc2ccc(Br)cc2)cc1
35 | 128 to 131 | CSc1noc(-c2ccc(OCCOc3ccccc3)cc2)c1C#N
36 | 128 to 130 | S=C(NCCC1CC(c2ccccc2)=NO1)N1CCOCC1 (stereo not drawn)
37 | 106 to 108 | CC(C)(C)C(=O)Oc1ccccc1C(=O)c1ccccc1OC(=O)C(C)(C)C
38 | 175 to 178 | O=C1C(=CO)c2ccccc2N1c1cccc(Cl)c1
39 | 110 to 112 | O=S(=O)(Nc1ccc2c(OCc3cccc(-c4ccc(F)cc4)c3)cccc2c1)C(F)(F)F
40 | 39 to 46 | COP(=O)(CC(=O)C(C)(C)Cc1ccccc1)OC
41 | 73 to 75 | COC(=O)c1ccccc1-c1noc(-c2ccc(OC)cc2)n1
42 | 179 to 181 | COc1ccc(Nc2nc(-c3ccc4scnc4c3)cn3ccnc23)cc1OC
43 | 63.3 to 64 | COc1ccc(C=CC(=O)c2cccc(OC)c2OC)cc1Oc1ccccc1
44 | 122 to 136 | C[C@H](NC(=O)Cc1ccccc1)C(=O)N[C@@H]1C(=O)Nc2ccccc2O[C@@H]1c1ccccc1
45 | 222 to 226 | Nc1ncc(CN2CCN(c3cccc(Cl)c3)CC2)c(N)n1
46 | 89 to 91 | CCCCCCCC(=O)OCCc1c(-c2ccccc2)nc(N)n2ncnc12
47 | 118 to 119 | O=C1N[C@H](Cc2cccc(OC(F)(F)C(F)F)c2)[C@H](c2cccc(F)n2)O1 (racemic)
48 | 78 to 79 | C=C(C1=C(CCC(=O)OC)C(=O)CC1OC(C)=O)c1ccccc1 (stereo not drawn)
49 | 155 to 156 | Oc1nc(Cc2ccc(F)cc2F)ncc1F
50 | 204 | Cc1cccc(COc2ccc(-c3ccc(C(=O)NC(Cc4ccccc4)C(=O)O)cc3)cc2)c1 (stereo not drawn)
51 | 112 to 114 | CN(Cc1ccc(Cl)cc1)S(=O)(=O)c1cn(S(=O)(=O)N(C)C)cn1
52 | 83 to 85 | CCOC(=O)C(C#N)=Cc1cc([N+](=O)[O-])ccc1Cl
53 | 178 to 180 | CN1[C@@H](c2ccc(O)cc2)c2ccccc2S1(=O)=O

Row | melting point [°C] | SMILES
54 | > 250 | CC(=O)Nc1ccc([N+](=O)[O-])cc1O
55 | 123 to 124 | CC(C)Cn1nc(-c2ccc(C(F)(F)F)cc2)cc(COS(C)(=O)=O)c1=O
56 | 143 to 146 | CCc1cc2c(ccc(=O)n2Cc2ccc(C(=O)O)cc2)c(CC)n1
57 | 214 to 216 | CCOc1ccc(-c2nc(O)c(-c3ccccc3)s2)cc1
58 | 73 to 75 | CS(=O)(=O)c1ccc(C2=C(c3ccccc3)CC2)cc1
59 | 201 to 203 | COc1cc(Nc2nc3cccc(-c4cncc5ccccc45)c3o2)cc(OC)c1OC
60 | 254 to 256 | S=c1[nH]nc(-c2ccc3ccccc3c2)s1
61 | 115 | O=C(OC1CCCCO1)C(c1ccccc1)(c1ccccc1)c1ccccc1 (stereo not drawn)
62 | 97 | N#CC(Cc1ccccc1)C(=O)O (stereo not drawn)
63 | 100 | CCCCOC(=O)C(=O)c1cc(-c2ccc(S(C)(=O)=O)cc2)n(-c2ccccc2)c1C
64 | 231 to 233 | O=C(C=Cc1ccc(NC(=O)c2ccc3ccccc3c2)cc1)NO
65 | 79 to 80 | O=[N+]([O-])c1cc(I)cc(OCc2ccccc2)c1
66 | 153 to 160 | OC1c2cc(Cl)ccc2OCC1n1ccnc1 (stereo not drawn)
67 | 95.5 to 97.5 | Cc1nc2cnc3ccccc3c2s1
68 | 29 to 31 | CC(=O)C(=[N+]=[N-])C(=O)CCCCCCCCCc1ccccc1
69 | 81 to 82 | Cc1ccc(S(=O)(=O)OCC2Cc3cccc(-c4cccc(C)c4)c3O2)cc1 (stereo not drawn)
70 | 223 to 225 | Cc1oc(-c2ccccc2)nc1CCOc1ccc(S(=O)(=O)Nc2cc(Cl)ccc2C(=O)O)cc1
71 | > 250 | CCCc1c2oc(C(=O)O)cc(=O)c2cc2c(=O)ccn(Cc3ccccc3)c12
72 | 93.5 to 93.8 | CCCCCCOc1ccc(-c2ncc(C#N)cn2)cc1
73 | 143 to 145 | CCOc1cc2c(C)c(CCN3CCN(c4ccccc4OC)CC3)c(=O)oc2cc1OC

Source: a melting point compilation (Tetko et al.; mined from patent text by program, amines drawn as free bases though some values may be those of a salt)
